# Reference: patent US20250326794A1, “ANTI-CANCER LEUCINE-RICH PEPTIDES AND USES THEREOF” (KING'S COLLEGE LONDON, priority 2019, published 2025)
# Columns and labels:
# [1] = system: U2OS (human bone osteosarcoma); settings: 72 h
# Method in brief: (§1)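 MTT viability after 72 h exposure to 0–100 μM compound (final DMSO 0.5% or 0%), 5×10^3 cells/well; HMLER lines and MCF-10A in MEGM, U2OS in DMEM with 10% FBS. A550 normalized to matching vehicle controls; IC50 interpolated from dose–response curves.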
# [2] = system: HMLER (human breast cancer bulk cell); assay: cells; settings: 72 h
# Method in brief: as §1
# [3] = system: HMLER-shEcad (human breast cancer stem cell); assay: cells; settings: 72 h
# Method in brief: as §1
# [4] = system: MCF-10A (human breast epithelial cell); assay: cells; settings: 72 h
# Method in brief: as §1
# [5] = system: HEK293T (human embryonic kidney cell); assay: cells; settings: 72 h
# [6] = ANTS/DPX liposome leakage assay, POPC vesicles; type: biochemical; settings: 0.5 mM vesicles; for Peptide Concentration-induced 50% ANTS/DPX leakage at pH 4.8, POPC Vesicle: pH 4.8, lipid per peptide; for Peptide Concentration-induced 50% ANTS/DPX leakage at pH 7.4, POPC Vesicle: pH 7.4, lipid per peptide
# Method in brief: (§2)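 Peptide titrations (0–20 μM) were incubated 3 h with 0.5 mM ANTS/DPX-loaded 100 nm vesicles, either POPC alone or 3:1 POPC/POPG, at pH 7.4 or pH 4.8 in PBS. ANTS fluorescence (350/510 nm) normalized to Triton-lysed vesicles; 50%-leakage values given as lipid:peptide ratio.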
# [7] = Tryptophan fluorescent binding assay, POPC vesicles; settings: 50 μM peptide, PBS pH 7.4, lipid per peptide
# Method in brief: (§3)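 Binding followed by tryptophan emission (300-450 nm, 280 nm excitation, 3 scans averaged) after 60 min incubation of 50 μM peptide with 0-5000 μM extruded 100 nm POPC or 3:1 POPC/POPG vesicles in PBS pH 7.4. Value: lipid-to-peptide ratio at half-maximal binding.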
# [8] = ANTS/DPX liposome leakage assay, 3POPC/1POPG vesicles; type: biochemical; settings: for Peptide Concentration-induced 50% ANTS/DPX leakage at pH 4.8, 3POPC/1POPG Vesicle / Peptide Concentration-induced 50% ANTS/DPX leakage at pH 7.4, 3POPC/1POPG Vesicle: 0.5 mM vesicles; for Peptide Concentration-induced 50% ANTS/DPX leakage at pH 4.8, 3POPC/1POPG Vesicle: pH 4.8, lipid per peptide; for Peptide Concentration-induced 50% ANTS/DPX leakage at pH 7.4, 3POPC/1POPG Vesicle: pH 7.4, lipid per peptide; for liposome leakage activity from anionic vesicle at pH 4.8 (in words): anionic versus zwitterionic vesicle
# Method in brief: as §2
# [9] = Tryptophan fluorescent binding assay, 3POPC/1POPG vesicles; settings: 50 μM peptide, PBS pH 7.4, lipid per peptide
# Method in brief: as §3
# [10] = system: HMLER-shEcad cells; assay: HMLER-shEcad viability with co-incubated necroptosis/apoptosis inhibitors; type: cell-based, human; settings: 20 μM necrostatin-1 or 5 μM z-VAD-FMK (FIG. 9C, 9D)
Compound,IC50 [1] [µM],IC50 [2] [µM],IC50 [3] [µM],IC50 [4] [µM],IC50 [5] [µM],"Peptide Concentration-induced 50% ANTS/DPX leakage at pH 4.8, POPC Vesicle [6] [L/P]","Peptide Concentration-induced 50% ANTS/DPX leakage at pH 7.4, POPC Vesicle [6] [L/P]","Lipid Concentration-induced 50% Peptide Binding, POPC Vesicle [7] [L/P]","Peptide Concentration-induced 50% ANTS/DPX leakage at pH 4.8, 3POPC/1POPG Vesicle [8] [L/P]","Peptide Concentration-induced 50% ANTS/DPX leakage at pH 7.4, 3POPC/1POPG Vesicle [8] [L/P]","Lipid Concentration-induced 50% Peptide Binding, 3POPC/1POPG Vesicle [9] [L/P]",liposome leakage activity from anionic vesicle at pH 4.8 (in words) [8],cell viability on co-incubation with necrostatin or z-VAD-FMK [10]
CC(C)C[C@H](NC(=O)CN)C(=O)N[C@@H](CC(C)C)C(=O)N[C@@H](CCC(=O)O)C(=O)N[C@@H](CC(C)C)C(=O)N[C@@H](CC(C)C)C(=O)N[C@@H](CCC(=O)O)C(=O)N[C@@H](CC(C)C)C(=O)N[C@@H](CC(C)C)C(=O)N[C@@H](CC(C)C)C(=O)N[C@@H](CCC(=O)O)C(=O)N[C@@H](C)C(=O)N[C@@H](C)C(=O)NCC(=O)N[C@@H](Cc1c[nH]c2ccccc12)C(N)=O [EEE],78.8 ± 5.3,6.25 ± 1.77,10.6 ± 3.46,≥ 100,50,35,143,1.33,28,346,4.50,–,–
CC(C)C[C@H](NC(=O)CN)C(=O)N[C@@H](CC(C)C)C(=O)N[C@@H](CCC(=O)O)C(=O)N[C@@H](CC(C)C)C(=O)N[C@@H](CC(C)C)C(=O)N[C@@H](Cc1c[nH]cn1)C(=O)N[C@@H](CC(C)C)C(=O)N[C@@H](CC(C)C)C(=O)N[C@@H](CC(C)C)C(=O)N[C@@H](CCC(=O)O)C(=O)N[C@@H](C)C(=O)N[C@@H](C)C(=O)NCC(=O)N[C@@H](Cc1c[nH]c2ccccc12)C(N)=O [EHE],18.2 ± 1.06,3.9 ± 0.28,2.55 ± 0.07,≥ 100,13,75,952,0.44,384,706,0.44,relatively higher liposome leakage activity,–
CC(C)C[C@H](NC(=O)CN)C(=O)N[C@@H](CC(C)C)C(=O)N[C@@H](CCC(=O)O)C(=O)N[C@@H](CC(C)C)C(=O)N[C@@H](CC(C)C)C(=O)N[C@@H](CCC(=O)O)C(=O)N[C@@H](CC(C)C)C(=O)N[C@@H](CC(C)C)C(=O)N[C@@H](CC(C)C)C(=O)N[C@@H](Cc1c[nH]cn1)C(=O)N[C@@H](C)C(=O)N[C@@H](C)C(=O)NCC(=O)N[C@@H](Cc1c[nH]c2ccccc12)C(N)=O [EEH],19.6 ± 3.96,3.3 ± 0.14,3.6 ± 0.85,≥ 100,12.9 ± 0.14,58,738,0.50,168,755,0.50,relatively higher liposome leakage activity,–
CC(C)C[C@H](NC(=O)CN)C(=O)N[C@@H](CC(C)C)C(=O)N[C@@H](CCCCN)C(=O)N[C@@H](CC(C)C)C(=O)N[C@@H](CC(C)C)C(=O)N[C@@H](CCC(=O)O)C(=O)N[C@@H](CC(C)C)C(=O)N[C@@H](CC(C)C)C(=O)N[C@@H](CC(C)C)C(=O)N[C@@H](CCC(=O)O)C(=O)N[C@@H](C)C(=O)N[C@@H](C)C(=O)NCC(=O)N[C@@H](Cc1c[nH]c2ccccc12)C(N)=O [KEE],49.4 ± 13.3,3.75 ± 0.78,2.05 ± 0.21,≥ 100,11.1 ± 1.84,97,626,0.20,108,657,0.20,–,–
CC(C)C[C@@H](NC(=O)CN)C(=O)N[C@H](CC(C)C)C(=O)N[C@H](CCC(=O)O)C(=O)N[C@H](CC(C)C)C(=O)N[C@H](CC(C)C)C(=O)N[C@H](CCC(=O)O)C(=O)N[C@H](CC(C)C)C(=O)N[C@H](CC(C)C)C(=O)N[C@H](CC(C)C)C(=O)N[C@H](CCCCN)C(=O)N[C@H](C)C(=O)N[C@H](C)C(=O)NCC(=O)N[C@H](Cc1c[nH]c2ccccc12)C(N)=O [D-form EEK],–,–,–,–,–,–,–,–,–,–,–,–,cannot be improved
